Assay type in all cases: cell-based
What all share (conditions): Oocyte

The target of test [1] is Transient receptor potential cation channel subfamily V member 1 (Rattus norvegicus) (UniProt O35433). In words: Blockade of rat recombinant TRPV1 expressed in xenopus oocytes assessed as inhibition of capsaicin-induced whole-cell current at 10 uM at holding potential of -60 mV by electrophysiological assay relative to control.
For test [2], the target named is Glutamate NMDA receptor; GRIN1/GRIN2A (Homo sapiens) (UniProt Q05586+Q12879). Briefly: Blockade of human recombinant NR1/NR2A expressed in xenopus oocytes assessed as inhibition of L-glutamate/glycine-induced whole-cell current at 10 uM at holding potential of -60 mV by electrophysiological assay relative to control.
Test [3] has as its target Transient receptor potential cation channel subfamily V member 1 (Rattus norvegicus) (UniProt O35433). In words: Blockade of rat recombinant TRPV1 expressed in xenopus oocytes assessed as inhibition of capsaicin-induced whole-cell current at 1 uM at holding potential of -60 mV by electrophysiological assay relative to control.

Chain of Transient receptor potential cation channel subfamily V member 1 (Rattus norvegicus) (O35433 whole entry): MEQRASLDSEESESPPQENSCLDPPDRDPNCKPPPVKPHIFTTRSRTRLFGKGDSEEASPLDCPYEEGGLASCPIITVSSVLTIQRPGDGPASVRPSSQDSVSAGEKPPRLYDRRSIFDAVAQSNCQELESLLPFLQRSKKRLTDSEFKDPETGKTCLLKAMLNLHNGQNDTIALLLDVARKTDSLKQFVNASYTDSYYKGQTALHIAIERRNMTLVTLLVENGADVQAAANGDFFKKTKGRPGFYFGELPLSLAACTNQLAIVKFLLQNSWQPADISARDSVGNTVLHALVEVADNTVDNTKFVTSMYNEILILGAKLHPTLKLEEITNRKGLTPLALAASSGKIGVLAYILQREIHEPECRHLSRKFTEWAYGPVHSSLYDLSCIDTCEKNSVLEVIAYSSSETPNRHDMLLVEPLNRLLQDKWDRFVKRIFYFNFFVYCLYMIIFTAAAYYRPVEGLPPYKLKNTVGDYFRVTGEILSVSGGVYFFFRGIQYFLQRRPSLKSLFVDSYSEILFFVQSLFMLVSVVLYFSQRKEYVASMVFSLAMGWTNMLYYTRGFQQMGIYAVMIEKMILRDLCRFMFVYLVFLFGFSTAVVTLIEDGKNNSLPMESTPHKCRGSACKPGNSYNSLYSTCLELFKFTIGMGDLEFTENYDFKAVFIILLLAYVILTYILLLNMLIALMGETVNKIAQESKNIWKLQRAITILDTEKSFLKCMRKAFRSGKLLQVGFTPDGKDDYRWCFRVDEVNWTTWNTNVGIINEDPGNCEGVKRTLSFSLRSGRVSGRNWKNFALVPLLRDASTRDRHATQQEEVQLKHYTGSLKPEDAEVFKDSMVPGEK

One may read the inhibition as how much of the control response was suppressed. In the case of `CC(=O)N[C@@H](CCCN=C(N)N)C(=O)N[C@@H](Cc1c(Sc2ccccc2[N+](=O)[O-])[nH]c2ccccc12)C(N)=O`, the inhibition came out at 29.2% in test [1] and 25.8% in test [2].
In the case of `CC(=O)N[C@@H](CCCC[N+](C)(C)C)C(=O)N[C@@H](Cc1c(Sc2ccccc2[N+](=O)[O-])[nH]c2ccccc12)C(N)=O`, the inhibition was 29% in test [1] and 32.2% in test [2].
As for `CC(=O)N[C@@H](CCN=C(N1CCCC1)N1CCCC1)C(=O)N[C@@H](Cc1c(Sc2ccccc2[N+](=O)[O-])[nH]c2ccccc12)C(N)=O`, the inhibition stood at 42.4% in test [1] and 9.6% in test [2].
For `NCCCC[C@H](N)C(=O)N[C@@H](Cc1c(Sc2ccccc2[N+](=O)[O-])[nH]c2ccccc12)C(N)=O`, the inhibition worked out at 26.3% in test [1] and 13.5% in test [2].
As to `NC(=O)[C@H](Cc1c(Sc2ccccc2[N+](=O)[O-])[nH]c2ccccc12)NC(=O)[C@@H](N)CCCN=C(N)N`, the inhibition in test [1] was 62.8%; in test [3] it was 18.7%; in test [2], 7.7%.
As for `NCCCC[C@@H]1NC(=O)N([C@@H](Cc2c(Sc3ccccc3[N+](=O)[O-])[nH]c3ccccc23)C(N)=O)C1=O`, the inhibition in test [1] was determined as 15.4%; in test [2], 10.5%.
For the molecule `CN(C)C(=NCCCC[C@@H]1NC(=O)N([C@@H](Cc2c(Sc3ccccc3[N+](=O)[O-])[nH]c3ccccc23)C(N)=O)C1=O)N(C)C`, the inhibition in test [1] was found to be 13%; in test [2], 9.3%.
As to `NC(=O)[C@H](Cc1c(Sc2ncccc2[N+](=O)[O-])[nH]c2ccccc12)N1C(=O)N[C@@H](CCCCN=C(N2CCCC2)N2CCCC2)C1=O`, the results for the inhibition in test [1] and in test [2] were 52.5% and 12.9%, respectively.
In the case of `NCC[C@H](N)C(=O)N[C@@H](Cc1c(Sc2ccccc2[N+](=O)[O-])[nH]c2ccccc12)C(N)=O`, the results for the inhibition in test [1] and in test [2] were 20.6% and 29.7%, respectively.
For `CC(=O)N[C@@H](CCCN=C(N)N)C(=O)N[C@@H](Cc1c(Sc2ncccc2[N+](=O)[O-])[nH]c2ccccc12)C(N)=O`, the inhibition in test [1] is 23.9%; in test [2], 26.3%.
In the case of `NC(=O)[C@H](Cc1c(Sc2ncccc2[N+](=O)[O-])[nH]c2ccccc12)NC(=O)[C@@H](N)CCCN=C(N)N`, the figures for the inhibition in test [1] and in test [2] were 44.8% and 20.6%, respectively.
Take `NC[C@@H]1NC(=O)N([C@@H](Cc2c(Sc3ccccc3[N+](=O)[O-])[nH]c3ccccc23)C(N)=O)C1=O`: the figures for the inhibition in test [1] and in test [2] were 29.9% and 18.4%, respectively.
With `NC(=O)[C@H](Cc1c(Sc2ccccc2[N+](=O)[O-])[nH]c2ccccc12)N1C(=O)N[C@@H](CCN=C(N2CCCC2)N2CCCC2)C1=O`, the inhibition in test [1] was found to be 56.3%; in test [2], 12%.
Consider `NC(=O)[C@H](Cc1c(Sc2ccccc2[N+](=O)[O-])[nH]c2ccccc12)NC(=O)[C@@H](N)CCCCN=C(N1CCCC1)N1CCCC1`, for which the inhibition is 55.8% in test [1] and 8.3% in test [2].
Taken in the same sequence, the figures for `CC(=O)N[C@@H](CCN)C(=O)N[C@@H](Cc1c(Sc2ccccc2[N+](=O)[O-])[nH]c2ccccc12)C(N)=O` were 27.6% and 27.2%.
As for `NC(=O)[C@H](Cc1c(Sc2ccccc2[N+](=O)[O-])[nH]c2ccccc12)N1C(=O)N[C@@H](CN=C(N2CCCC2)N2CCCC2)C1=O`, the inhibition in test [1] is 51.3%; in test [2], 43.7%.
Turning to `NCCCC[C@H](N)C(=O)N[C@@H](Cc1c(Sc2ncccc2[N+](=O)[O-])[nH]c2ccccc12)C(N)=O`, the inhibition in test [1] was determined as 17%; in test [2] it was 23.6%.
On to `CN(C)C(=NCCCC[C@@H]1NC(=O)N([C@@H](Cc2c(Sc3ncccc3[N+](=O)[O-])[nH]c3ccccc23)C(N)=O)C1=O)N(C)C`, for which the inhibition amounted to 40.9% in test [1] and 10.8% in test [2].
On to `NCC[C@@H]1NC(=O)N([C@@H](Cc2c(Sc3ccccc3[N+](=O)[O-])[nH]c3ccccc23)C(N)=O)C1=O`, for which the inhibition in test [1] came to 11%; in test [2], 16%.
Turning to `CC(=O)N[C@@H](CCCCN=C(N1CCCC1)N1CCCC1)C(=O)N[C@@H](Cc1c(Sc2ncccc2[N+](=O)[O-])[nH]c2ccccc12)C(N)=O`, the inhibition in test [1] worked out at 16.6%; in test [2] it was 30.2%.
`NC(=O)[C@H](Cc1c(Sc2ncccc2[N+](=O)[O-])[nH]c2ccccc12)N1C(=O)N[C@@H](CCCN=C(N)N)C1=O`: the inhibition in test [1] amounted to 54.3%; in test [2] it was 24.2%.
On to `C[N+](C)(C)CCCC[C@H](N)C(=O)N[C@@H](Cc1c(Sc2ccccc2[N+](=O)[O-])[nH]c2ccccc12)C(N)=O`, for which the results for the inhibition in test [1] and in test [2] were 36.7% and 5.5%, respectively.
Take `CC(=O)N[C@@H](CN)C(=O)N[C@@H](Cc1c(Sc2ccccc2[N+](=O)[O-])[nH]c2ccccc12)C(N)=O`: the values for the inhibition in test [1] and in test [2] were 14.6% and 27%, respectively.
As for `NC[C@H](N)C(=O)N[C@@H](Cc1c(Sc2ccccc2[N+](=O)[O-])[nH]c2ccccc12)C(N)=O`, the values for the inhibition in test [1] and in test [2] were 39.3% and 24%, respectively.
`NC(=O)[C@H](Cc1c(Sc2ccccc2[N+](=O)[O-])[nH]c2ccccc12)N1C(=O)N[C@@H](CCCCN=C(N2CCCC2)N2CCCC2)C1=O`: the inhibition in test [1] came to 60.4%; in test [2] it was 10.7%.
As to `C[N+](C)(C)CCCC[C@@H]1NC(=O)N([C@@H](Cc2c(Sc3ccccc3[N+](=O)[O-])[nH]c3ccccc23)C(N)=O)C1=O`, the inhibition worked out at 66.5% in test [1], 17.4% in test [3] and 9.2% in test [2].
For `NC(=O)[C@H](Cc1c(Sc2ccccc2[N+](=O)[O-])[nH]c2ccccc12)NC(=O)[C@H](CCCCN=C(N1CCCC1)N1CCCC1)N=C(N1CCCC1)N1CCCC1` the same measures were 97.2%, 27.3% and 6.8%.
With `CC(=O)N[C@@H](CCCCN)C(=O)N[C@@H](Cc1c(Sc2ncccc2[N+](=O)[O-])[nH]c2ccccc12)C(N)=O`, the inhibition was determined as 12.7% in test [1] and 13.6% in test [2].
In the case of `CC(=O)N[C@@H](CN=C(N1CCCC1)N1CCCC1)C(=O)N[C@@H](Cc1c(Sc2ccccc2[N+](=O)[O-])[nH]c2ccccc12)C(N)=O`, the results for the inhibition in test [1] and in test [2] were 49.9% and 30.3%, respectively.
On to `CC(=O)N[C@@H](CCCCN=C(N(C)C)N(C)C)C(=O)N[C@@H](Cc1c(Sc2ccccc2[N+](=O)[O-])[nH]c2ccccc12)C(N)=O`, for which the results for the inhibition in test [1] and in test [2] were 19.9% and 6.1%, respectively.
On to `NCCCC[C@@H]1NC(=O)N([C@@H](Cc2c(Sc3ncccc3[N+](=O)[O-])[nH]c3ccccc23)C(N)=O)C1=O`, for which the inhibition stood at 24.6% in test [1] and 26.8% in test [2].
Consider `CC(=O)N[C@@H](CCCCN)C(=O)N[C@@H](Cc1c(Sc2ccccc2[N+](=O)[O-])[nH]c2ccccc12)C(N)=O`, for which the inhibition came to 14.3% in test [1] and 15.4% in test [2].
As to `CN(C)C(=NCCCC[C@H](N)C(=O)N[C@@H](Cc1c(Sc2ccccc2[N+](=O)[O-])[nH]c2ccccc12)C(N)=O)N(C)C`, the inhibition in test [1] stood at 49.7%; in test [3], 21.1%; in test [2], 69.7%.
For the molecule `NC(=O)[C@H](Cc1c(Sc2ccccc2[N+](=O)[O-])[nH]c2ccccc12)N1C(=O)N[C@@H](CCCN=C(N)N)C1=O`, the inhibition in test [1] is 50.2%; in test [2], 20.2%.
Consider `NC(=O)[C@H](Cc1c(Sc2ccccc2[N+](=O)[O-])[nH]c2ccccc12)NC(=O)[C@@H](N)CCN=C(N1CCCC1)N1CCCC1`, for which the results for the inhibition in test [1], in test [3] and in test [2] were 76.1%, 23.5% and 13.9%, respectively.
For the molecule `CC(=O)N[C@@H](CCCCN=C(N1CCCC1)N1CCCC1)C(=O)N[C@@H](Cc1c(Sc2ccccc2[N+](=O)[O-])[nH]c2ccccc12)C(N)=O`, the inhibition in test [1] amounted to 44%; in test [2] it was 6.4%.
For the molecule `CC(=O)N[C@@H](CCCCN=C(N(C)C)N(C)C)C(=O)N[C@@H](Cc1c(Sc2ncccc2[N+](=O)[O-])[nH]c2ccccc12)C(N)=O`, the inhibition turned out to be 12% in test [1] and 20.6% in test [2].
Taken in the same sequence, the figures for `C[N+](C)(C)CCCC[C@@H]1NC(=O)N([C@@H](Cc2c(Sc3ncccc3[N+](=O)[O-])[nH]c3ccccc23)C(N)=O)C1=O` were 19.9% and 20.6%.

(Values after ChEMBL document CHEMBL1777688, “TRPV1 modulators: structure-activity relationships using a rational combinatorial approach” (Bioorg Med Chem Lett, 2011).)
